How the values were obtained:
[1] = biological target: T1, Salmonella typhimurium ArnB (Salmonella typhimurium, UniProt Q8ZNF3); experiment: ArnB aminotransfer half-reaction assay (absorbance of PMP/PLP cofactor forms at 340 nm / 430 nm); assay type: biochemical; conditions: for conversion of ArnB from the E-PLP form back to the E•PMP form by amino donor: excess amino acid, decrease at 430 nm and increase at 340 nm; for observed rate constant of aminotransfer from L-methionine to E-PLP ArnB: enzyme concentration 23 μM, L-methionine concentration 20 mM
T1 construct: made in house; host or cells: E. coli BL21 (DE3), vector pSB3 (modified pET26b)
Experimental: Aminotransfer half-reactions were measured at an enzyme concentration of 23 μM and substrates were added to a final concentration of 250 μM, unless otherwise indicated. Reaction progress was followed by moniotoring the absorbance maxima of the PMP or PLP cofactor forms at 340 nm or 430 nm, respectively. Resulting time courses were fit to eq. 1, describing a single-exponential decay,
Yobs=((Y0−Y∞)e^−kt)+Y∞ (Eq. 1),
where Yobs=observed signal, Y0=signal at time zero, Y∞=signal at infinite time, k is the apparent first-order rate constant, and t is time. Nonlinear least-squares fits were performed with Kaleidagraph v3.51 (Synergy Software, Reading, Pa.).

[2] = biological target: T1, Salmonella typhimurium ArnB; experiment: L-cycloserine inhibition of ArnB followed by cofactor absorbance spectrum; assay type: biochemical
ArnB from E. coli K12 = ArnB from E. coli K12 (Escherichia coli, UniProt P77690); conditions: compared with L-glutamate; cited from earlier work
ArnB from E. coli K12, sequence (P77690 whole entry): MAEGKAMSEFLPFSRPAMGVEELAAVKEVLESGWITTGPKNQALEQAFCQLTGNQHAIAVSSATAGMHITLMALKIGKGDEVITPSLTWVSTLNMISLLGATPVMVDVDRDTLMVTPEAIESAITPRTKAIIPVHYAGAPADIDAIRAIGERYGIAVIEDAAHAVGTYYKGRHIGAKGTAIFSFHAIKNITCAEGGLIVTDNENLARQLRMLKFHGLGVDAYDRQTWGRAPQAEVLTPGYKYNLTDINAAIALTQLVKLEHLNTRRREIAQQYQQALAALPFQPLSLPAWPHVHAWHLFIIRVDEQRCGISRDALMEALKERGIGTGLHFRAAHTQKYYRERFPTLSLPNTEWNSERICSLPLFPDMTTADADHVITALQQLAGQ

T1 sequence (Q8ZNF3 whole entry): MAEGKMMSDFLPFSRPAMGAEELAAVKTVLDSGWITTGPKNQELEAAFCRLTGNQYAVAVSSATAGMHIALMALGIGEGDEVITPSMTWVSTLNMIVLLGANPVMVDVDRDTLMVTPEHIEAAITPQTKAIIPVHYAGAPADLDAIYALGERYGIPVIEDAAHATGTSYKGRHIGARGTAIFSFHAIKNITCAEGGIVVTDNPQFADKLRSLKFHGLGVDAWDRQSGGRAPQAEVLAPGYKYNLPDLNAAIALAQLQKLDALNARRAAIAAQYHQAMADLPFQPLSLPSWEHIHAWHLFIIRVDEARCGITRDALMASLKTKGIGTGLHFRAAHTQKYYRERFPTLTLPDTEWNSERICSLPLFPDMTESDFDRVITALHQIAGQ

CSCC[C@@H](N)C(=O)O (single isomer, unassigned) [D-isomer of methionine]
conversion of ArnB from the E-PLP form back to the E•PMP form by amino donor [1]: no such effect

N[C@@H](CC(=O)O)C(=O)O (single isomer, unassigned) [L-isomer of aspartic acid]
conversion of ArnB from the E-PLP form back to the E•PMP form by amino donor [1]: slower rate than L-methionine

N[C@H]1CONC1=O [L-cycloserine]
reaction with ArnB in the E-PMP form ([2]; E-PMP enzyme form): did not react
inactivation of E-PLP ArnB ([2]; excess L-cycloserine, loss of 430 nm internal aldimine peak, appearance of peak centered at 334 nm): rapidly inactivated

N[C@@H](CCC(=O)O)C(=O)O [L-glutamate]
conversion of ArnB from the E-PLP form back to the E•PMP form by amino donor [1]: fastest L-amino acid tested

NC(=O)CC[C@H](N)C(=O)O [L-glutamine]
use as amino donor substrate (ArnB from E. coli K12): less efficiently than with L-glutamate

CSCC[C@H](N)C(=O)O [L-methionine]
conversion of ArnB from the E-PLP form back to the E•PMP form by amino donor [1]: readily converted
observed rate constant of aminotransfer from L-methionine to E-PLP ArnB ([1]; measured at 340 nm): 0.065 ± 0.014 min⁻¹
observed rate constant of aminotransfer from L-methionine to E-PLP ArnB ([1]; measured at 430 nm): 0.051 ± 0.013 min⁻¹

O=C(O)CCCC(=O)C(=O)O [α-Ketoadipate]
reduction in aminotransfer rate from that of α-ketoglutarate ([1]; E•PMP to E-PLP conversion, absorbance increase at 430 nm, α-ketoacid as amino acceptor substrate): 3 fold

From patent publication US20030105010A1, “Crystals and structures of ArnB aminotransferases” (priority 2001, published 2003)
